Measurements from patent US20040142979A1, “Heteroarylsulfonylmethyl hydroxamic acids and amides and their use as protease inhibitors” (priority 2002, published 2004).

Legend:
[1] = molecular target: T1, Human recombinant MMP-1 (Homo sapiens, UniProt P03956); test: In vitro MMP inhibition analysis (fluorogenic peptide substrate), MMP-1; assay type: biochemical; conditions: human recombinant enzyme; 4 μM substrate (A); apparent Ki without substrate correction
T1 construct: made in house; host or cells: MMP-1-transfected HT-1080 cells (spent media)
T1 sequence (P03956 100-469): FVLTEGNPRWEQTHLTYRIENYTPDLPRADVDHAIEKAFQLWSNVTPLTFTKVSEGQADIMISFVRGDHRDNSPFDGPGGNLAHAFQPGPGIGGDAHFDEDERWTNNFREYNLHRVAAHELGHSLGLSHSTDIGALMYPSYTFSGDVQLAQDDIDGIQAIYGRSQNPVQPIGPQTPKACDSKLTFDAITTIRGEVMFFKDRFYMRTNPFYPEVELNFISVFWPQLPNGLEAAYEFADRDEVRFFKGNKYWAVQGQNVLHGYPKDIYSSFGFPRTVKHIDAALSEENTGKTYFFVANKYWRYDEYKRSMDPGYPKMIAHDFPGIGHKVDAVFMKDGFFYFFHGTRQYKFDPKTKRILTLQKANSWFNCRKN
Procedure: (§1) Several compounds and salts were analyzed in an in vitro assay to determine their ability to inhibit the MMP cleavage of peptide substrates. Inhibition constant (Ki) were calculated from the assayed compound-MMP interactions.
(§2) Human recombinant MMP-1, MMP-2, MMP-9, MMP-13, and MMP-14 were used in this assay. All enzymes were prepared in Assignee's laboratories following usual laboratory procedures. Protocols for the preparation and use of these enzymes are available in the scientific literature. See, e.g., Enzyme Nomenclature (Academic Press, San Diego, Calif., 1992) (and the citations therein). See also, Freije et al., J. Biol. Chem., 269(24), 16766-16773 (1994).
The MMP-1 proenzyme was purified from the spent media of MMP-1-transfected HT-1080 cells provided by Dr. Harold Welgus of Washington University (St. Louis, Mo.). The protein was purified on a zinc chelating column.
(§3) All MMPs were activated using 4-aminophenylmercuric acetate (“APMA”, Sigma Chemical, St. Louis, Mo.) or trypsin. MMP-9 also was activated using human recombinant MMP-3 (purified in Assignee's laboratory following standard cloning and purification techniques).
(§4) The following fluorogenic, methoxycoumarin-containing polypeptide substrate (A) was used in the MMP inhibition assays:
(§5) MCA-ArgProLeuGlyLeuDpaAlaArgGluArgNH2 (A)
(§6) “MCA” is 7-methoxycoumarin-4-yl acetyl. Substrate (A) was prepared Assignee's laboratory. In the absence of MMP inhibitory activity, the substrate is cleaved at the Gly-Leu peptide bond. This cleavage separates the highly fluorogenic peptide from the 2,4-dinitrophenyl quencher, thus resulting in increase of fluorescent intensity.
(§7) The stock solutions of the assayed compounds and salts were prepared in 1% dimethyl sulfoxide (DMSO). These stock solutions were diluted in Buffer A (100 mM Tris-HCl, 100 mM NaCl, 10 mM CaCl2, 0.05% polyoxyethylene 23 lauryl ether, pH 7.5) to obtain solutions with different compound concentrations, i.e., assay solutions with different concentrations of the assayed MMP inhibitory compound. The experiment controls contained the same amount of Buffer A/DMSO as the assayed sample, but contained none of the tested compound or salt.
(§8) The assays from which the Ki determinations were made were performed as follows. The assayed compound samples were incubated in separate wells of untreated white polystyrene plates (Nunc Nalgene International, Rochester, N.Y.), and analyzed on a Tecan SpectraFlour Plus plate reader. The excitation wavelength was 330 nm, and the emission wavelength -420 nm. All samples (assayed compounds and controls) were incubated in separate plate wells at room temperature for 1 hr in the presence of 4 μM of MMP substrate (A). In the absence of MMP inhibitory activity, substrate (A) was cleaved at the Gly-Leu bond resulting in an increase of relative fluorescence. Inhibition was observed as a reduced rate of this increase in relative fluorescence. […] This protocol is a modification of method by Knight et al., FEBS Lett., 296(3), 263-266 (1992). Apparent inhibitory constants were determined by non-linear regression of reaction velocity as a function of inhibitor and enzyme concentration using Morrison's equation, as described by Kuzmic, P., et al., Anal. Biochem., 286(1):45-50 (2000). Modifications were made in the non-linear regression method to allow a common control reaction rate and effective enzyme concentration to be shared between all dose-response relationships on a given assay plate. Since the substrate concentration was chosen to be at or below the Km, the apparent Ki's from this analysis were reported as Ki's without correction for the influence of substrate.
(§9) The above protocols were used to determine MMP inhibition Ki constants for the compounds in Examples 1, 2, and 4-42 above. All Ki values in Table 3 are given in nM units.

[2] = molecular target: T2, Human recombinant MMP-2 (Homo sapiens, UniProt P08253); test: In vitro MMP inhibition analysis (fluorogenic peptide substrate), MMP-2; assay type: biochemical; conditions: human recombinant enzyme; 4 μM substrate (A); apparent Ki without substrate correction
T2 construct: made in house; host or cells: MMP-2-transfected p2AHT2 cells
T2 sequence (P08253 110-660): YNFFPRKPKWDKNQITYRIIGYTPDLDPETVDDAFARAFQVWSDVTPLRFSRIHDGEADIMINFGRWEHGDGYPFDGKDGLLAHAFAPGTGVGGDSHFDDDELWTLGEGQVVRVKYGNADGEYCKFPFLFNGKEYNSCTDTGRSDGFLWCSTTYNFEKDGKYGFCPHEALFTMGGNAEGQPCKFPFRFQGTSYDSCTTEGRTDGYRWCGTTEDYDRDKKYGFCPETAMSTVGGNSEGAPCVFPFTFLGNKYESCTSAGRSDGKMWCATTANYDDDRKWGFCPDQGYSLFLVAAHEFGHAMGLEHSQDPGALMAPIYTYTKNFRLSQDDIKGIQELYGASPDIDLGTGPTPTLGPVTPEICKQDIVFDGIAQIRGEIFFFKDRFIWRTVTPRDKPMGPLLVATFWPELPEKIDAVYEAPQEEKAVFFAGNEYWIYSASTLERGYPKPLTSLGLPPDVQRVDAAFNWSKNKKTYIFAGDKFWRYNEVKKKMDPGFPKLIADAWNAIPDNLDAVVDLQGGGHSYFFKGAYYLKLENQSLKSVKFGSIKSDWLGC
Procedure: as §1, §2
The MMP-2 proenzyme was purified by gelatin Sepharose chromatography from MMP-2- transfected p2AHT2 cells provided by Dr. Gregory Goldberg of Washington University (St. Louis, Mo.).
as §3, §4, §5, §6, §7, §8, §9

Row | Ki [1] [nM] | Ki [2] [nM] | Structure (SMILES)
1 | > 10000 | 46.6 | O=C(NO)C1(S(=O)(=O)c2ccc3c(c2)sc2nc(-c4ccccc4)cn23)CCOCC1 [Example 83]
2 | 4480 | 0.819 | O=C(NO)C1(S(=O)(=O)c2ccc(-c3ccc(OC(F)(F)F)cc3)nc2)CCOCC1 [Example 84]
